EC50 and Emax data for ten molecules are collected here from US20260001893A1, “SMALL MOLECULE MODULATORS OF STAT6” (Gilead Sciences, Inc., priority 2024, published 2026).

Broadly, the EC50 is the concentration that produces a half-maximal response. Broadly, the Emax is the greatest response seen or fitted, relative to the assay's reference.

This experiment relates to Eotaxin-3 (CCL26) release in human whole blood stimulated with IL-4. Nature of the experiment: Human whole blood eotaxin-3 assay (IL-4 stimulated eotaxin-3 release). It is filed as cell-based. The following applies: human whole blood stimulated with recombinant human IL-4, 48 h, geometric mean; for EC50: inhibition of eotaxin-3 release, given for test compounds with >80% Emax. Here is the method:
Human Whole Blood Eotaxin-3 Assay
This was a human whole blood assay using recombinant human Interleukin 4 to stimulate the blood and measuring the ability of the test compounds to inhibit eotaxin-3 release. The biological activities of the test compounds have been tested in human whole blood stimulated with IL-4 measuring Eotaxin-3 release. The test compounds were added to 384 well clear flat-bottom plate in a 4-fold serial dilution in triplicates using a liquid handler. Human whole blood stabilized in lithium-heparin tubes was added in a volume of 65 μL per well, resulting in a final DMSO concentration of 0.5%. The plate is incubated for 2 h at 37° C. under 5% CO2/95% air. Subsequently, 5 μL of recombinant human IL-4 (R&D Systems, cat #204-ILB) was added to the wells to a final concentration of […]. The plate was incubated for 48 h at 37° C. under 5% CO2/95% air. The plate was spun down for 10 minutes at 500×g and 20 μL supernatant was harvested and transferred to a 384 well v-bottom plate using a liquid handler and stored at −20° C. until further analysis. 10 μL supernatant was used to measure the level of Eotaxin-3 (CCL26) using Human Eotaxin-3 MSD kit from Mesocsale (Cat #K251UEK-4). The assay was performed according to the manufacture instructions.
The data from the human whole blood eotaxin-3 assay is shown below for Examples 1ab3, 1ab6, 1d23, and 1d4 (where the effect in % is plotted against the test concentration in M on a log-scale).

Turning to `Cc1cc(C(=O)N(C)C)cc(F)c1C1=CCN(Cc2cc3c(-n4ccc(N)cc4=O)ccnc3n2C)CC1` [Example 1ad6, 4-[1-[[4-(4-Amino-2-oxo-1-pyridyl)-1-methyl-pyrrolo[2,3-b]pyridin-2-yl]methyl]-3,6-dihydro-2H-pyridin-4-yl]-3-fluoro-N,N,5-trimethyl-benzamide], the EC50 (Homo sapiens, 48 h) worked out at 6.09 nM.

For `CNC(=O)c1cc(C)c(C2=CCN(Cc3cc4c(-n5ccc(NC)cc5=O)ccnc4n3C)CC2)c(F)c1` [Example 1m75, 3-fluoro-N,5-dimethyl-4-(1-((1-methyl-4-(4-(methylamino)-2-oxopyridin-1 (2H)-yl)-1H-pyrrolo[2,3-b]pyridin-2-yl)methyl)-1,2,3,6-tetrahydropyridin-4-yl)benzamide], the concentration for a half-maximal effect (EC50) (Homo sapiens, 48 h) was determined as 17.8 nM.

Take `CNc1ccn(-c2ccnc3c2cc([C@H](C)N2CC=C(c4c(C)cc(C(=O)N(C)C)cc4F)CC2)n3C)c(=O)c1F` [Example 1m125, (S)-3-fluoro-4-(1-(1-(4-(3-fluoro-4-(methylamino)-2-oxopyridin-1 (2H)-yl)-1-methyl-1H-pyrrolo[2,3-b]pyridin-2-yl)ethyl)-1,2,3,6-tetrahydropyridin-4-yl)-N,N,5-trimethylbenzamide]: the EC50 (Homo sapiens, 48 h) came to 25.1 nM.

For `[2H]C([2H])([2H])N(C(=O)c1cc(C)c(C2=CCN(Cc3cc4c(-n5ccc(NC)c(C)c5=O)ccnc4n3C)CC2)c(F)c1)C([2H])([2H])[2H]` [Example 1m114, 3-fluoro-5-methyl-N,N-bis(methyl-d3)-4-(1-((1-methyl-4-(3-methyl-4-(methylamino)-2-oxopyridin-1 (2H)-yl)-1H-pyrrolo[2,3-b]pyridin-2-yl)methyl)-1,2,3,6-tetrahydropyridin-4-yl)-benzamide], the EC50 (Homo sapiens, 48 h) was determined as 185 nM.

Turning to `CNc1ccn(-c2ccnc3c2cc(CN2CC[C@@H](c4ccc(C(=O)N(C)C)cc4)C[C@H]2C)n3C)c(=O)c1` (single isomer, unassigned) [Example 1d42], the EC50 (Homo sapiens, 48 h) worked out at 150 nM.

Take `CN(C)C(=O)c1ccc(C2=CCN(Cc3cc4c(-n5ccc6c(c5=O)CCN6)ccnc4n3C)CC2)cn1` [Example 1m70, N,N-dimethyl-1′-((1-methyl-4-(4-oxo-1,2,3,4-tetrahydro-5H-pyrrolo[3,2-c]pyridin-5-yl)-1H-pyrrolo[2,3-b]pyridin-2-yl)methyl)-1′, 2′, 3′, 6′-tetrahydro-[3,4′-bipyridine]-6-carboxamide]: the Emax (Homo sapiens, 48 h, given for test compounds with <80% Emax) fell in the range of 20 to 30%.

For `CN(C)C(=O)c1cc(F)c(C2CCN(Cc3cc4c(-n5cc(F)c(N)c(F)c5=O)ccnc4n3C)CC2)c(F)c1` [Example 1m119, 4-(1-((4-(4-amino-3,5-difluoro-2-oxopyridin-1 (2H)-yl)-1-methyl-1H-pyrrolo[2,3-b]pyridin-2-yl)methyl)piperidin-4-yl)-3,5-difluoro-N,N-dimethylbenzamide], the EC50 (Homo sapiens, 48 h) worked out at 36.4 nM.

Take `Cc1cc(C(=O)N(C)C)ccc1C1=CCN([C@H](C)c2cc3c(-n4ccc(N)c(F)c4=O)ccnc3n2C)CC1` [Example 1m86, (R)-4-(1-(1-(4-(4-amino-3-fluoro-2-oxopyridin-1 (2H)-yl)-1-methyl-1H-pyrrolo[2,3-b]pyridin-2-yl)ethyl)-1,2,3,6-tetrahydropyridin-4-yl)-N,N,3-trimethylbenzamide]: the EC50 (Homo sapiens, 48 h) came to 672 nM.

On to `C[C@@H](c1cc2c(-n3ccc(N)c(F)c3=O)ccnc2n1C)N1CC=C(c2ccc(C(=O)N(C)C)cn2)CC1` (single isomer, unassigned) [Example 1m77], for which the EC50 (Homo sapiens, 48 h) stood at 524 nM.

`CNc1ccn(-c2ccnc3c2cc([C@H](C)N2CC[C@@H](c4c(C)cc(C(=O)N(C)C)cc4F)C(F)(F)C2)n3C)c(=O)c1` (stereo in doubt) [Example 1m142, 4-((S)-3,3-difluoro-1-((S)-1-(1-methyl-4-(4-(methylamino)-2-oxopyridin-1 (2H)-yl)-1H-pyrrolo[2,3-b]pyridin-2-yl)ethyl)piperidin-4-yl)-3-fluoro-N,N,5-trimethylbenzamide]: the EC50 is 13.6 nM.
